Laboratory results reported in ChEMBL document CHEMBL1687747, “Effect of mild and moderate liver disease on the pharmacokinetics of isavuconazole after intravenous and oral administration of a single dose of the prodrug BAL8557” (Antimicrob Agents Chemother, 2009).

Tests used:
Conditions in all cases: in vivo
Homo sapiens [1] = experiment: Toxicity in of human with mild liver impairment at 180.5 mg, po administered as single dose over 2 hrs following overnight fasting; type: organism-based
Homo sapiens [2] = experiment: Terminal half life in human with mild liver impairment assessed as isavuconazole level at 180.5 mg, iv administered as single dose over 2 hrs following overnight fasting by high-pressure liquid chromatography coupled with tandem mass spectrometry; type: ADME, organism-based
Homo sapiens [3] = experiment: Volume of distribution at steady state in of human with moderate liver impairment assessed as isavuconazole level at 180.5 mg, iv administered as single dose over 2 hrs following overnight fasting by high-pressure liquid chromatography coupled with tandem mass spectrometry; type: ADME, organism-based
Homo sapiens [4] = experiment: Cmax in plasma of human with moderate liver impairment assessed as isavuconazole level at 180.5 mg, iv administered as single dose over 2 hrs following overnight fasting by high-pressure liquid chromatography coupled with tandem mass spectrometry by HPLC-tandem mass spectrometry; type: ADME, organism-based; parameters: dose 180.5 mg, route intravenous
Homo sapiens [5] = experiment: Toxicity in healthy human at 180.5 mg, po administered as single dose over 2 hrs following overnight fasting; type: organism-based
Homo sapiens [6] = experiment: Cmax in plasma of human with mild liver impairment assessed as isavuconazole level at 180.5 mg, iv administered as single dose over 2 hrs following overnight fasting by high-pressure liquid chromatography coupled with tandem mass spectrometry by HPLC-tandem mass spectrometry; type: ADME, organism-based; parameters: dose 180.5 mg, route intravenous
Homo sapiens [7] = experiment: Tmax in healthy human plasma assessed as isavuconazole level at 180.5 mg, po administered as single dose over 2 hrs following overnight fasting by high-pressure liquid chromatography coupled with tandem mass spectrometry; type: ADME, organism-based
Homo sapiens [8] = experiment: Terminal half life in healthy human assessed as isavuconazole level at 180.5 mg, iv administered as single dose over 2 hrs following overnight fasting by high-pressure liquid chromatography coupled with tandem mass spectrometry; type: ADME, organism-based
Homo sapiens [9] = experiment: Oral clearance in healthy human plasma assessed as isavuconazole level at 180.5 mg, po administered as single dose over 2 hrs following overnight fasting by high-pressure liquid chromatography coupled with tandem mass spectrometry; type: ADME, organism-based
Homo sapiens [10] = experiment: AUC (0 to t) in human with mild liver impairment at 180.5 mg, iv administered as single dose over 2 hrs following overnight fasting by high-pressure liquid chromatography coupled with tandem mass spectrometry; type: ADME, organism-based; parameters: time < 2 hr, dose 180.5 mg, route intravenous
Homo sapiens [11] = experiment: AUC (0 to t) in human with mild liver impairment assessed as metabolite BAL8728 level at 180.5 mg, iv administered as single dose over 2 hrs following overnight fasting by high-pressure liquid chromatography coupled with tandem mass spectrometry; type: ADME, organism-based; parameters: dose 180.5 mg, time < 2 hr, route intravenous
Homo sapiens [12] = experiment: Cmax in healthy human plasma assessed as isavuconazole level at 180.5 mg, po administered as single dose over 2 hrs following overnight fasting by high-pressure liquid chromatography coupled with tandem mass spectrometry by HPLC-tandem mass spectrometry; type: ADME, organism-based; parameters: dose 180.5 mg, route oral
Homo sapiens [13] = experiment: AUC (0 to t) in human with moderate liver impairment assessed as metabolite BAL8728 level at 180.5 mg, iv administered as single dose over 2 hrs following overnight fasting by high-pressure liquid chromatography coupled with tandem mass spectrometry; type: ADME, organism-based; parameters: dose 180.5 mg, time < 2 hr, route intravenous
Homo sapiens [14] = experiment: AUC (0 to t) in healthy human assessed as metabolite BAL8728 level at 180.5 mg, iv administered as single dose over 2 hrs following overnight fasting by high-pressure liquid chromatography coupled with tandem mass spectrometry; type: ADME, organism-based, Plasma; parameters: dose 180.5 mg, time < 2 hr, route intravenous
Homo sapiens [15] = experiment: AUC (0 to t) in human with moderate liver impairment at 180.5 mg, iv administered as single dose over 2 hrs following overnight fasting by high-pressure liquid chromatography coupled with tandem mass spectrometry; type: ADME, organism-based; parameters: dose 180.5 mg, time < 2 hr, route intravenous
Homo sapiens [16] = experiment: Terminal half life in human with moderate liver impairment assessed as isavuconazole level at 180.5 mg, po administered as single dose over 2 hrs following overnight fasting by high-pressure liquid chromatography coupled with tandem mass spectrometry; type: ADME, organism-based
Homo sapiens [17] = experiment: AUC (0 to infinity) in plasma of human with moderate liver impairment assessed as isavuconazole level at 180.5 mg, po administered as single dose over 2 hrs following overnight fasting by high-pressure liquid chromatography coupled with tandem mass spectrometry; type: ADME, organism-based; parameters: dose 180.5 mg, route oral, time infinity
Homo sapiens [18] = experiment: Cmax in healthy human plasma assessed as isavuconazole level at 180.5 mg, iv administered as single dose over 2 hrs following overnight fasting by high-pressure liquid chromatography coupled with tandem mass spectrometry by HPLC-tandem mass spectrometry; type: ADME, organism-based; parameters: dose 180.5 mg, route intravenous
Homo sapiens [19] = experiment: Toxicity in healthy human at 180.5 mg, iv administered as single dose over 2 hrs following overnight fasting; type: organism-based
Homo sapiens [20] = experiment: AUC (0 to t) in healthy human at 180.5 mg, iv administered as single dose over 2 hrs following overnight fasting by high-pressure liquid chromatography coupled with tandem mass spectrometry; type: ADME, organism-based, Plasma; parameters: time < 2 hr, dose 180.5 mg, route intravenous
Homo sapiens [21] = experiment: Tmax in plasma of human with moderate liver impairment assessed as isavuconazole level at 180.5 mg, po administered as single dose over 2 hrs following overnight fasting by high-pressure liquid chromatography coupled with tandem mass spectrometry; type: ADME, organism-based
Homo sapiens [22] = experiment: Tmax in plasma of human with mild liver impairment assessed as isavuconazole level at 180.5 mg, po administered as single dose over 2 hrs following overnight fasting by high-pressure liquid chromatography coupled with tandem mass spectrometry; type: ADME, organism-based
Homo sapiens [23] = experiment: Oral clearance in plasma of human with mild liver impairment assessed as isavuconazole level at 180.5 mg, po administered as single dose over 2 hrs following overnight fasting by high-pressure liquid chromatography coupled with tandem mass spectrometry; type: ADME, organism-based
Homo sapiens [24] = experiment: Systemic clearance in plasma of human with mild liver impairment assessed as isavuconazole level at 180.5 mg, iv administered as single dose over 2 hrs following overnight fasting by high-pressure liquid chromatography coupled with tandem mass spectrometry; type: ADME, organism-based
Homo sapiens [25] = experiment: AUC (0 to infinity) in plasma of human with mild liver impairment assessed as isavuconazole level at 180.5 mg, po administered as single dose over 2 hrs following overnight fasting by high-pressure liquid chromatography coupled with tandem mass spectrometry; type: ADME, organism-based; parameters: dose 180.5 mg, route oral, time infinity
Homo sapiens [26] = experiment: Terminal half life in human with mild liver impairment assessed as isavuconazole level at 180.5 mg, po administered as single dose over 2 hrs following overnight fasting by high-pressure liquid chromatography coupled with tandem mass spectrometry; type: ADME, organism-based
Homo sapiens [27] = experiment: AUC (0 to infinity) in healthy human plasma assessed as isavuconazole level at 180.5 mg, iv administered as single dose over 2 hrs following overnight fasting by high-pressure liquid chromatography coupled with tandem mass spectrometry; type: ADME, organism-based; parameters: dose 180.5 mg, time infinity, route intravenous
Homo sapiens [28] = experiment: Terminal half life in healthy human assessed as isavuconazole level at 180.5 mg, po administered as single dose over 2 hrs following overnight fasting by high-pressure liquid chromatography coupled with tandem mass spectrometry; type: ADME, organism-based
Homo sapiens [29] = experiment: Systemic clearance in plasma of human with moderate liver impairment assessed as isavuconazole level at 180.5 mg, iv administered as single dose over 2 hrs following overnight fasting by high-pressure liquid chromatography coupled with tandem mass spectrometry; type: ADME, organism-based
Homo sapiens [30] = experiment: Systemic clearance in healthy human plasma assessed as isavuconazole level at 180.5 mg, iv administered as single dose over 2 hrs following overnight fasting by high-pressure liquid chromatography coupled with tandem mass spectrometry; type: ADME, organism-based
Homo sapiens [31] = experiment: Volume of distribution at steady state in of human with mild liver impairment assessed as isavuconazole level at 180.5 mg, iv administered as single dose over 2 hrs following overnight fasting by high-pressure liquid chromatography coupled with tandem mass spectrometry; type: ADME, organism-based
Homo sapiens [32] = experiment: Oral clearance in plasma of human with moderate liver impairment assessed as isavuconazole level at 180.5 mg, po administered as single dose over 2 hrs following overnight fasting by high-pressure liquid chromatography coupled with tandem mass spectrometry; type: ADME, organism-based
Homo sapiens [33] = experiment: Volume of distribution at steady state in healthy human assessed as isavuconazole level at 180.5 mg, iv administered as single dose over 2 hrs following overnight fasting by high-pressure liquid chromatography coupled with tandem mass spectrometry; type: ADME, organism-based
Homo sapiens [34] = experiment: Terminal half life in human with moderate liver impairment assessed as isavuconazole level at 180.5 mg, iv administered as single dose over 2 hrs following overnight fasting by high-pressure liquid chromatography coupled with tandem mass spectrometry; type: ADME, organism-based
Homo sapiens [35] = experiment: Toxicity in of human with mild liver impairment at 180.5 mg, iv administered as single dose over 2 hrs following overnight fasting; type: organism-based
Homo sapiens [36] = experiment: Cmax in plasma of human with mild liver impairment assessed as isavuconazole level at 180.5 mg, po administered as single dose over 2 hrs following overnight fasting by high-pressure liquid chromatography coupled with tandem mass spectrometry by HPLC-tandem mass spectrometry; type: ADME, organism-based; parameters: dose 180.5 mg, route oral
Homo sapiens [37] = experiment: AUC (0 to infinity) in plasma of human with mild liver impairment assessed as isavuconazole level at 180.5 mg, iv administered as single dose over 2 hrs following overnight fasting by high-pressure liquid chromatography coupled with tandem mass spectrometry; type: ADME, organism-based; parameters: dose 180.5 mg, time infinity, route intravenous
Homo sapiens [38] = experiment: Volume of distribution at steady state in of human with mild liver impairment assessed as isavuconazole level at 180.5 mg, po administered as single dose over 2 hrs following overnight fasting by high-pressure liquid chromatography coupled with tandem mass spectrometry; type: ADME, organism-based
Homo sapiens [39] = experiment: Volume of distribution at steady state in healthy human assessed as isavuconazole level at 180.5 mg, po administered as single dose over 2 hrs following overnight fasting by high-pressure liquid chromatography coupled with tandem mass spectrometry; type: ADME, organism-based
Homo sapiens [40] = experiment: Toxicity in of human with moderate liver impairment at 180.5 mg, po administered as single dose over 2 hrs following overnight fasting; type: organism-based
Homo sapiens [41] = experiment: AUC (0 to infinity) in plasma of human with moderate liver impairment assessed as isavuconazole level at 180.5 mg, iv administered as single dose over 2 hrs following overnight fasting by high-pressure liquid chromatography coupled with tandem mass spectrometry; type: ADME, organism-based; parameters: dose 180.5 mg, route intravenous, time infinity
Homo sapiens [42] = experiment: Toxicity in of human with moderate liver impairment at 180.5 mg, iv administered as single dose over 2 hrs following overnight fasting; type: organism-based
Homo sapiens [43] = experiment: Volume of distribution at steady state in of human with moderate liver impairment assessed as isavuconazole level at 180.5 mg, po administered as single dose over 2 hrs following overnight fasting by high-pressure liquid chromatography coupled with tandem mass spectrometry; type: ADME, organism-based
Homo sapiens [44] = experiment: Cmax in plasma of human with moderate liver impairment assessed as isavuconazole level at 180.5 mg, po administered as single dose over 2 hrs following overnight fasting by high-pressure liquid chromatography coupled with tandem mass spectrometry by HPLC-tandem mass spectrometry; type: ADME, organism-based; parameters: dose 180.5 mg, route oral
Homo sapiens [45] = experiment: AUC (0 to infinity) in healthy human plasma assessed as isavuconazole level at 180.5 mg, po administered as single dose over 2 hrs following overnight fasting by high-pressure liquid chromatography coupled with tandem mass spectrometry; type: ADME, organism-based; parameters: dose 180.5 mg, route oral, time infinity

- beta t1/2 (Homo sapiens [2]): 224 h
- Vdss (Homo sapiens [3]): 471 L
- Cmax (Homo sapiens [4]): 840 ng/mL
- Cmax (Homo sapiens [6]): 980 ng/mL
- Tmax (Homo sapiens [7]): 2.4 h
- beta t1/2 (Homo sapiens [8]): 123 h
- CL (Homo sapiens [9]): 2.38 L/h
- AUC (Homo sapiens [10]): 0.375 µg/h/mL
- AUC (Homo sapiens [11]): 0.685 µg/h/mL
- Cmax (Homo sapiens [12]): 840 ng/mL
- AUC (Homo sapiens [13]): 0.583 µg/h/mL
- AUC (Homo sapiens [14]): 0.606 µg/h/mL
- AUC (Homo sapiens [15]): 0.433 µg/h/mL
- beta t1/2 (Homo sapiens [16]): 240 h
- AUC (Homo sapiens [17]): 62 µg/h/mL
- Cmax (Homo sapiens [18]): 1090 ng/mL
- AUC (Homo sapiens [20]): 0.195 µg/h/mL
- Tmax (Homo sapiens [21]): 2.6 h
- Tmax (Homo sapiens [22]): 2.7 h
- CL (Homo sapiens [23]): 1.26 L/h
- CL (Homo sapiens [24]): 1.93 L/h
- AUC (Homo sapiens [25]): 98 µg/h/mL
- beta t1/2 (Homo sapiens [26]): 292 h
- AUC (Homo sapiens [27]): 39 µg/h/mL
- beta t1/2 (Homo sapiens [28]): 148 h
- CL (Homo sapiens [29]): 1.43 L/h
- CL (Homo sapiens [30]): 2.73 L/h
- Vdss (Homo sapiens [31]): 492 L
- CL (Homo sapiens [32]): 1.82 L/h
- Vdss (Homo sapiens [33]): 422 L
- beta t1/2 (Homo sapiens [34]): 302 h
- Cmax (Homo sapiens [36]): 730 ng/mL
- AUC (Homo sapiens [37]): 72 µg/h/mL
- Vdss (Homo sapiens [38]): 485 L
- Vdss (Homo sapiens [39]): 475 L
- AUC (Homo sapiens [41]): 101 µg/h/mL
- Vdss (Homo sapiens [43]): 598 L
- Cmax (Homo sapiens [44]): 470 ng/mL
- AUC (Homo sapiens [45]): 45 µg/h/mL
SMILES: CNCC(=O)OCc1cccnc1N(C)C(=O)OC(C)[n+]1cnn(C[C@](O)(c2cc(F)ccc2F)[C@@H](C)c2nc(-c3ccc(C#N)cc3)cs2)c1.Cl.[Cl-] (stereo not given in full)
- Activity (Homo sapiens [1]): Non-toxic
- Activity (Homo sapiens [5]): Non-toxic
- Activity (Homo sapiens [19]): Non-toxic
- Activity (Homo sapiens [35]): Non-toxic
- Activity (Homo sapiens [40]): Non-toxic
- Activity (Homo sapiens [42]): Non-toxic
